Patent publication US6596772B1, “Phosphate mimics and methods of treatment using phosphatase inhibitors” (Sugen, Inc., priority 1999, dated 2003)
Where two headings read alike, the source gives them in different places.

Columns and labels:
Test in all cases: PTP IC50 assay, pNPP or FDP as substrate
Format in all cases: biochemical
PTP SHP2 = target: T1, PTP SHP2 (Homo sapiens, UniProt Q06124)
T1 construct: The catalytic domain was amplified using the following oligonucleotides; made in house; host or cells: Sf-9 insect cells (pFastBac-G2T)
T1 sequence (Q06124 247-517 limits assumed): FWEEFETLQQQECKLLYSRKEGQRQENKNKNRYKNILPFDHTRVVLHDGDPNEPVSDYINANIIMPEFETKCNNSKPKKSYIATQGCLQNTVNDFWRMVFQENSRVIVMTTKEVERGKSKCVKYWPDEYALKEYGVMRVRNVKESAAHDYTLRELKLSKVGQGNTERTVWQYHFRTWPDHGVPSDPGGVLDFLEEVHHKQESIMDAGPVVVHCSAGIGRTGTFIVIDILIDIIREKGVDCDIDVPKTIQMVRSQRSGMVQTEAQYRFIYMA
Description: (§1) The following in vitro assay procedure is preferred to determine the level of activity and effect of the different compounds of the present invention on one or more of the PTPs. Similar assays can be designed along the same lines for any PTP using techniques well known in the art.
(§2) The catalytic assays described herein are performed in a 96-well format. The general procedure begins with the determination of PTP optimal pH using a three-component buffer system that minimizes ionic strength variations across a wide range of buffer pH. Next, the Michaelis-Menten constant, or Km, is determined for each specific substrate-PTP system. This Km value is subsequently used as the substrate reaction concentration for compound screening. Finally, the test PTP is exposed to varying concentrations of compound for fifteen minutes and allowed to react with substrate for ten minutes. The results are plotted as percent inhibition versus compound concentration and the IC50 interpolated from the plot.
(§3) All assays were performed using pNPP or FDP as substrate. The optimum pH was determined for each PTP used.
(§4) PTPase activity was assayed at 25° C. in a 100-μl reaction mixture containing an appropriate concentration of pNPP or FDP as substrate. The reaction was initiated by addition of the PTP and quenched after 10 min by addition of 50 μl of IN NaOH. The non-enzymatic hydrolysis of the substrate was corrected by measuring the control without the addition of the enzyme. The amount of p-nitrophenol produced was determined from the absorbance at 410 nm. To determine the kinetic parameter, Km, the initial velocities were measured at various substrate concentrations and the data were fitted to the Michaelis equation where velocity=(Vmax*[S])/(Km+[S]), and [S]=substrate reaction concentration.
(§5) The effect of the compounds on PTP was evaluated at 25° C. using pNPP or FDP as substrate. PTP was pre-incubated for fifteen minutes with various concentrations of compound. Substrate was then added at a fixed concentration (usually equal to the Km previously calculated). After 10 minutes, NaOH was added to stop the reaction. The hydrolysis of pNPP was followed at 410 nm on the Biotek Powerwave 200 microplate scanning spectrophotometer. The percent inhibition was calculated as follows: Percent Inhibition=[(control signal−compound signal)/control signal] ×100%. The IC50 was then determined by interpolation of a percent inhibition versus compound concentration plot.
(§6) Plasmids designed for bacterial GST-PTP fusion protein expression were derived by insertion of PCR-generated human PTP fragments into pGEX vectors (Pharmacia Biotech). Several of these constructs were then used to subclone phosphatases into pFastBac-1for expression in Sf-9 insect cells. Oligonucleotides used for the initial amplification of PTP genes are shown below. The cDNAs were prepared using the Gilbo BRL superscript preamplification system on RNAs purchased from Clontech.
SHP-2 cDNA was used as described earlier (Vogel W., et al.,1993, Science, 259:1611-4). The catalytic domain was amplified using the following oligonucleotides 5′oligo: 5′-[…]-3′ (SEQ ID NO: 2) 3′oligo: 5′-[…]-3′ (SEQ ID NO: 3) and subsequently subcloned into BamH1-Xba-1 sites. It was then ligated into pfas Bac-G2T BamH1-Xba-1 sites.

PTP 1B = target: T2, PTP 1B (Homo sapiens, UniProt P18031)
T2 construct: made in house; host or cells: Sf-9 insect cells (pFastBac-G2T)
T2 sequence (P18031 1-435): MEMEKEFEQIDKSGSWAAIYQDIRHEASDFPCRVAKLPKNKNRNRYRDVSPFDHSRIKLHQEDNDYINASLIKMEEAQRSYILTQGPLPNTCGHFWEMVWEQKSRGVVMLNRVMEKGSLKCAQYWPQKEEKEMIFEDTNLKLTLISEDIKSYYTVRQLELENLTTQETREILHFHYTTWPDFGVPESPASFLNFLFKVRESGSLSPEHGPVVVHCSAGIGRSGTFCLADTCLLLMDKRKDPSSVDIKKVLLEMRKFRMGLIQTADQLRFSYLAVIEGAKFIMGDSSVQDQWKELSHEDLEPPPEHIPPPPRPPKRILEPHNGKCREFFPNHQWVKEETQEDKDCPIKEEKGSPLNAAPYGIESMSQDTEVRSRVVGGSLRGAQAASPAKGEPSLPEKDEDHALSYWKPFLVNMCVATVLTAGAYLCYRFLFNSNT
Description: as §1, §2, §3, §4, §5, §6
The PTP1b cDNA was amplified from human placenta single strand cDNA (Clontech RNA) using the following oligonucleotides: 5′oligo: 5′-[…] (SEQ ID NO: 4) 3′oligo: 5′-[…] (SEQ ID NO: 5) It was subsequently ligated into pFasBac G2TBamH1Xba-1 sites.

PTP EPSILON = target: T3, PTP EPSILON (Homo sapiens, UniProt P23469)
T3 construct: made in house; host or cells: Sf-9 insect cells (pFastBac-G2T); a pGEX 6P-1 construct also existed
Description: as §1, §2, §3, §4, §5, §6
The PTPepsilon cDNA was amplified from human placenta single-strand cDNA (Clontech RNA) using the following oligonucleotides: 5′oligo: 5′-[…]-3′ (SEQ ID NO: 6) 3′oligo: 5′-[…]-3′ (SEQ ID NO: 7) After cloning this PCR product into the Bam HI/Xho I sites of pGEX 6P-1, this phosphatase was subcloned using the same restriction sites in pFastBac-G2T.

PTP MU = target: T4, PTP MU (Homo sapiens, UniProt P28827)
T4 construct: made in house; host or cells: E. coli BL-21 (pGEX 6P-1)
Description: as §1, §2, §3, §4, §5, §6
The PTP Mu cDNA was amplified from a human lung cDNA library (Clontech) using the following oligonucleotides; 5′oligo: 5′-[…]-3′ (SEQ ID NO: 18) 3′oligo: 5′-[…]-3′ (SEQ ID NO: 19) It was subsequently ligated into the Eco RI/Xho I sites of pGEX 6P-1.

[1] = pNPP or FDP as substrate, 25° C., read-out: PTP IC50 SHP2
[2] = pNPP or FDP as substrate, 25° C., read-out: PTP IC50 1B
[3] = pNPP or FDP as substrate, 25° C., read-out: PTP IC50 Epilson
[4] = pNPP or FDP as substrate, 25° C., read-out: PTP IC50 Mu

T3 sequence (P23469 80-393 limits assumed): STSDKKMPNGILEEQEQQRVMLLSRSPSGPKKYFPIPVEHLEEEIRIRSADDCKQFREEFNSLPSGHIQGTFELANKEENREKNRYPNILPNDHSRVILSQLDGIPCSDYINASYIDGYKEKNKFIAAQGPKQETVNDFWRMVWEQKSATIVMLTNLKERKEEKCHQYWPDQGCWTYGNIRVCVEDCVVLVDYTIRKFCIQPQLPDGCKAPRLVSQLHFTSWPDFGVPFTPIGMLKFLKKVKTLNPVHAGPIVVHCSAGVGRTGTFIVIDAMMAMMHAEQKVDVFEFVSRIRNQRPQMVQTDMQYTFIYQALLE
T4 sequence (P28827 831-1186 limits assumed): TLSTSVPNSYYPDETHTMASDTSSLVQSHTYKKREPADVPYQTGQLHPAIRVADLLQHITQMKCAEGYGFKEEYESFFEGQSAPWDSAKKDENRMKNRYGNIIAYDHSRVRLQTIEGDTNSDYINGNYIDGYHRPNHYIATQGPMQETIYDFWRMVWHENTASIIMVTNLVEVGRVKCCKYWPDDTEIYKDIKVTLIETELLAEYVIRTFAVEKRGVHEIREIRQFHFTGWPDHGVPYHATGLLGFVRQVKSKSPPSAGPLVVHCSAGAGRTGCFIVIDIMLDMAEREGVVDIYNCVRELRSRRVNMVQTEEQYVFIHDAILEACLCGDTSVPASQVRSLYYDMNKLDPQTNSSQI

| Molecule | IC50 (PTP SHP2; [1]) | IC50 (PTP 1B; [2]) | IC50 (PTP EPSILON; [3]) | IC50 (PTP MU; [4]) | IC50 (PTP SHP2; comparison of R groups, read-out: IC50 SHP2) | IC50 (PTP 1B; comparison of R groups, read-out: IC50 1B) | IC50 (PTP EPSILON; comparison of R groups, read-out: IC50 Epsilon) | IC50 (PTP MU; comparison of R groups, read-out: IC50 Mu) |
| --- | --- | --- | --- | --- | --- | --- | --- | --- |
| 1-(4-Aminophenoxy)-4-trifluoromethylsulfonamidophenoxy benzene [Example 72] | 17 µM | 28.2 µM | 48.3 µM | > 100 µM |  |  |  |  |
| O=[N+]([O-])c1cc(S(=O)(=O)C(F)(F)F)ccc1OC1CCC(Oc2ccc(S(=O)(=O)C(F)(F)F)cc2[N+](=O)[O-])C1 (mixture of isomers) [Example 12, 1,3-Bis-(2-nitro-4-trifluoromethanesulfonyl-phenoxy)-cyclopentane] | 79.8 µM | > 100 µM | > 100 µM | > 100 µM |  |  |  |  |
| CS(=O)(=O)Nc1ccc(Oc2ccc(Oc3ccc(NS(C)(=O)=O)cc3)cc2)cc1 [CH3SO2NH—] |  |  |  |  | 33.6 µM | 51.9 µM | 51.4 µM | > 100 µM |
| O=S(=O)(c1ccc(COCc2ccc(S(=O)(=O)C(F)(F)F)cc2)cc1)C(F)(F)F [Example 1, Bis (4-trifluoromethylsulfonylbenzyl) ether] | 2 µM | > 100 µM | 24.3 µM | > 100 µM |  |  |  |  |
| O=S(=O)(c1ccc(COc2ccc(S(=O)(=O)C(F)(F)F)cc2)cc1)C(F)(F)F [Example 2, 4-Trifluoromethylsulfonylbenzyl 4-trifluoromethylsulfonylphenyl ether] | 42.6 µM | 55.7 µM | 8.1 µM | > 100 µM |  |  |  |  |
| O=C(c1ccccc1)N(Cc1ccc(S(=O)(=O)C(F)(F)F)cc1)Cc1ccc(S(=O)(=O)C(F)(F)F)cc1 [Example 3, N,N-Bis(4-trifluoromethylsulfonylbenzyl)benzamide] | 74.5 µM | 44.9 µM | 28.1 µM | > 100 µM |  |  |  |  |
| O=S(=O)(c1ccc(CCc2ccc(S(=O)(=O)C(F)(F)F)cc2)cc1)C(F)(F)F [Example 4, 1,2-Bis(4-trifluoromethylsulfonylphenyl)ethane] | > 100 µM | > 100 µM | 16.6 µM | > 100 µM |  |  |  |  |
| O=C(NCc1ccc(S(=O)(=O)C(F)(F)F)cc1)c1ccc(S(=O)(=O)C(F)(F)F)cc1 [Example 5, N-(4-Trifluoromethylsulfonylbenzyl)-4-trifluoromethylsulfonylbenzamide] | > 100 µM | > 100 µM | 38.6 µM | > 100 µM |  |  |  |  |
| O=C(NCc1ccc(S(=O)(=O)C(F)(F)F)cc1)c1ccccc1 [Example 6, N-(4-Trifluoromethylsulfonylbenzyl)benzamide] | > 100 µM | > 100 µM | > 100 µM | > 100 µM |  |  |  |  |
| O=[N+]([O-])c1cc(S(=O)(=O)C(F)(F)F)ccc1SSc1ccc(S(=O)(=O)C(F)(F)F)cc1[N+](=O)[O-] [Example 8, Bis-(2-nitro-4-trifluoromethylsulfonylphenyl) disulfide] | 37 µM | 46.8 µM | 53.7 µM | > 100 µM |  |  |  |  |
| COC(=O)c1cc(Oc2ccc(S(=O)(=O)C(F)(F)F)cc2)cc(Oc2ccc(S(=O)(=O)C(F)(F)F)cc2)c1 [Example 9, 3,5-Bis-(4-trifluoromethanesulfonyl-phenoxy)-benzoic acid methyl ester] | > 100 µM | > 100 µM | > 100 µM | > 100 µM |  |  |  |  |
| COC(=O)Cc1cc(Oc2ccc(S(=O)(=O)C(F)(F)F)cc2[N+](=O)[O-])cc(Oc2ccc(S(=O)(=O)C(F)(F)F)cc2[N+](=O)[O-])c1 [Example 10, [3,5-Bis-(2-nitro-4-trifluoromethanesulfonyl-phenoxy)-phenyl]-acetic acid methyl ester] | > 100 µM | > 100 µM | 60.8 µM | > 100 µM |  |  |  |  |
| COC(=O)c1cc(Oc2ccc(S(=O)(=O)C(F)(F)F)cc2[N+](=O)[O-])cc(Oc2ccc(S(=O)(=O)C(F)(F)F)cc2[N+](=O)[O-])c1 [Example 11, 3,5-Bis-(2-nitro-4-trifluoromethanesulfonyl-phenoxy)-benzoic acid methyl ester] | > 100 µM | > 100 µM | 38.7 µM | > 100 µM |  |  |  |  |
| COC(=O)c1c(Oc2ccc(S(=O)(=O)C(F)(F)F)cc2[N+](=O)[O-])cc(C)cc1Oc1ccc(S(=O)(=O)C(F)(F)F)cc1[N+](=O)[O-] [Example 13, 4-Methyl-2,6-bis-(2-nitro-4-trifluoromethanesulfonyl-phenoxy)-benzoic acid methyl ester] | > 100 µM | > 100 µM | 80.4 µM | 76 µM |  |  |  |  |
| COC(=O)c1ccc(OCCOc2ccc(S(=O)(=O)C(F)(F)F)cc2[N+](=O)[O-])cc1 [Example 14, 4-[2-(2-nitro-4-trifluoromethanesulfonyl-phenoxy)-ethoxy]-benzoic acid methyl ester] | > 100 µM | > 100 µM | > 100 µM | > 100 µM |  |  |  |  |
| O=C(O)c1ccc(Oc2cccc(Oc3ccc(S(=O)(=O)C(F)(F)F)cc3[N+](=O)[O-])c2)cc1 [Example 15, 4-[3-(2-Nitro-4-trifluoromethanesulfonyl-phenoxy)-phenoxy]-benzoic acid] | 10.7 µM | 15.7 µM | 10 µM | 15.5 µM |  |  |  |  |
| COC(=O)c1cc(Oc2ccc(S(=O)(=O)C(F)(F)F)cc2[N+](=O)[O-])n(-c2cc(C(F)(F)F)cc(C(F)(F)F)c2)n1 [Example 16, 1-(3,5-Bis-trifluoromethyl-phenyl)-5-(2-nitro-4-trifluoromethanesulfonyl-phenoxy)-1H-pyrazole-3-carboxylic acid methyl ester] | > 100 µM | > 100 µM | 64.7 µM | > 100 µM |  |  |  |  |
